Measurements: paper PMC2812657 (Biochemical and biophysical research communications, 2009)

How the values were obtained:
GSK3β = GSK3β (Homo sapiens, UniProt P49841); test: in vitro kinase profiling assay; assay type: biochemical
GSK3α = GSK3α (Homo sapiens, UniProt P49840); test: in vitro kinase profiling assay
GSK3α, sequence (P49840 2-483): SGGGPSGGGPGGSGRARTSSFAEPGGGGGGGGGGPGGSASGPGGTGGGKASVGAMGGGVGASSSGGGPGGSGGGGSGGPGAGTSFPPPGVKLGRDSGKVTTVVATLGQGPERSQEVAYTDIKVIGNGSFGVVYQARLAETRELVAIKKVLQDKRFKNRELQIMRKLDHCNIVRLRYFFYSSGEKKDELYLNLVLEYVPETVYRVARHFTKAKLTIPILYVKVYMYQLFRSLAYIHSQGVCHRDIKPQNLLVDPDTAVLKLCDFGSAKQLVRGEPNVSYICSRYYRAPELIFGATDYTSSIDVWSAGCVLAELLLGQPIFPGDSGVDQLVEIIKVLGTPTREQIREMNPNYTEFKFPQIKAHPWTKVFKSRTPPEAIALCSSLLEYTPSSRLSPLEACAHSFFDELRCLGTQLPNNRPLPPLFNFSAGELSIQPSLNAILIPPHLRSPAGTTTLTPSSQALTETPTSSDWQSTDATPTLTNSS

GSK3β, sequence (P49841 whole entry): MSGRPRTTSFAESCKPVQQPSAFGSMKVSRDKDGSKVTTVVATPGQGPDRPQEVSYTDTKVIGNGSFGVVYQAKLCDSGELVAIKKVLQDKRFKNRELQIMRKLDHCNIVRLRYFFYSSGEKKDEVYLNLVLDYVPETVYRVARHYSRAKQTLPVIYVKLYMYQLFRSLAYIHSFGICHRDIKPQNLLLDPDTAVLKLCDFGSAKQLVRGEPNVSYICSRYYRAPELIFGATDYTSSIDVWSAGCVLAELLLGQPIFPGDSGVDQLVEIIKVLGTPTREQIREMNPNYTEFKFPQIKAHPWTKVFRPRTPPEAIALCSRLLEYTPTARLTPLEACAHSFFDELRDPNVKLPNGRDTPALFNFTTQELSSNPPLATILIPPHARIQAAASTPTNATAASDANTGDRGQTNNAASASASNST

## Nc1cccc(-c2cc3c(Oc4cccc(O)c4)ncnc3[nH]2)c1 [TWS119]
GSK3β
  IC50: 410 nM
GSK3α
  IC50: 88 nM
